According to article PMC12029982, “The Mechanism of a Novel Mitochondrial-Targeted Icaritin Derivative in Regulating Apoptosis of BEL-7402 Cells Based on the SIRT3 and CypD-Mediated ROS/p38 MAPK Signaling Pathway” (Molecules, 2025):

Key:
Type in all cases: cell-based, human
HEK293 = assay: MTT assay, cytotoxicity to normal cell line
Method: Human cancer cell lines BEL-7402, A549, MCF-7, PC-3M, and normal renal cell line HEK293 were bought from the BeNa Culture Collection (Beijing, China). BEL7402, A549, and PC-3M were cultured in RPMI 1640 medium (Gibco, Carlsbad, CA, USA). MCF-7 and HEK293 were cultured in the DMEM medium (Gibco, CA, USA). The medium was supplemented with 10% fetal bovine serum (FBS) (CLARK, San Diego, CA, USA), 100 U/mL penicillin, and 0.1 mg/mL streptomycin (Beyotime, Nanjing, China). The cells were incubated in 5% CO2 at 37 °C.
The MTT assay was employed to assess the inhibitory effect of each compound on cell growth. A549, PC-3M, MCF-7, BEL-7402, and HEK293 cells in the logarithmic growth phase were seeded in 96-well culture plates at an inoculum density of 5 × 10^4 cells/mL. After overnight incubation at 37 °C in a 5% CO2 atmosphere, the cells fully adhered to the surface. Different concentrations of sample solutions (0, 3.125, 6.25, 12.5, 25, 50, 100 μmol/L) were added (100 μL) to treat the cells. After 48 h of drug treatment, 10 μL of a 5 mg/mL MTT solution was added to each well and incubated for 4 h at 37 °C. The supernatant was then discarded, and 150 μL of DMSO was added to dissolve the formazan. The mixture was shaken at room temperature for 15 min, and the absorbance (D) value was measured at 490 nm using a Microplate Reader (HBS-ScanY, Nanjing, China). The drug IC50 values were calculated using GraphPad Prism (v10.0). Each cell viability experiment was performed in triplicate.

BEL-7402 cells [1] = assay: Annexin V-FITC/PI flow cytometry apoptosis assay
Method: BEL-7402 cells in the logarithmic growth phase were prepared into a cell suspension at a concentration of 2.5 × 10^5 cells/mL and seeded into 6-well culture plates with 2 mL per well. After overnight incubation, different concentrations of Mito-ICT-4 (0.625, 1.25, 2.5 μmol/L) were added to the cells, and a control group was included. After 48 h of culture, the supernatant was transferred to a centrifuge tube. The cells were then digested with pancreatin (without EDTA) (Beyotime, Nanjing, China) at room temperature and centrifuged at 4 °C for 5 min (10,000 rpm). The supernatant was discarded. Then, 300 μL of 1× buffer was added to each group, and the mixture was well mixed. The mixture was then incubated with 5 μL of Annexin V-FITC (Solarbio, Beijing, China) solution at room temperature for 5 min, protected from light, followed by the addition of 5 μL of PI solution. Apoptosis was detected using flow cytometry (BD Biosciences, Franklin Lakes, NJ, USA).

BEL-7402 cells [2] = assay: DAPI staining, apoptosis; conditions: 0.625, 1.25, 2.5 μmol/L, 48 h
Method: BEL-7402 cells in the logarithmic growth phase were seeded in 12-well plates at a density of 1 × 10^5 cells/well. After overnight incubation, the cells were treated with different concentrations of Mito-ICT-4 (0.625, 1.25, and 2.5 μmol/L), and a control group was included. After 48 h of incubation, the cells were fixed with 4% histocyte fixative (Solarbio, Beijing, China) at room temperature for 15 min. After fixation, 500 μL of DAPI staining solution (Solarbio, Beijing, China) was added to each well and incubated at 37 °C for 20 min. The cells were then observed under an inverted fluorescence microscope (EVOS M5000, Waltham, MA, USA).

BEL-7402 cells [3] = assay: Calcein AM/CoCl2 probe, MPTP opening; conditions: increasing drug concentration, 24 h
Method: Drug grouping and administration were performed as described in Section 2.5. After 24 h of incubation, 500 μL of staining solution (containing 2 μM Calcein AM and 5 mM CoCl2) (Aladdin, Shanghai, China) was added to each well. The cells were stained for 30 min at 37 °C and protected from light. After staining, the solution was discarded, and the cells were washed twice with PBS. The cells were then observed under an inverted fluorescence microscope.

BEL-7402 cells [4] = assay: DCFH-DA probe, intracellular ROS by flow cytometry; conditions: 48-h treatment, dose-dependent
Method: Drug grouping and administration were performed as described in Section 2.6. After 48 h of incubation, 500 μL of DCFH-DA probe (Beyotime, Nanjing, China) was added to each well. The cells were stained for 30 min at 37 °C and protected from light. The dye was then discarded, and the cells were washed three times with a serum-free medium. Samples were analyzed using flow cytometry with an excitation wavelength of 480 nm and an emission wavelength of 525 nm.

CypD = assay: Western blot; conditions: 48 h
Method: (§1) Drug grouping and administration were performed as described in Section 2.6. After 48 h of incubation, the supernatant was discarded, and the cells were washed twice with pre-cooled PBS. A volume of 150 µL of RIPA lysis buffer (Solarbio, Beijing, China) was added and incubated on ice. After sufficient lysis, the supernatant was centrifuged, and the protein concentration was determined using a BCA kit (Thermo, Waltham, MA, USA). The SDS-PAGE gel system was chosen based on the molecular weight of the target proteins to perform electrophoresis. After electrophoresis, the processed samples were transferred to a membrane and incubated at room temperature for 2 h to block non-specific binding. After membrane transfer, the membranes were incubated with primary antibodies against CypD (Proteintech Group, Wuhan, China), SIRT3 (Abcam, Cambridge, UK), P-MKK6 (Bioss, Beijing, China), P-P38 (Bioss, Beijing, China), DDIT3 (Bioss, Beijing, China), Cleaved-caspase-3 (Abcam, Cambridge, UK), and β-actin (ZSGB-BIO, Beijing, China) (1:1000) at 4 °C overnight. After primary antibody binding, the membranes were incubated with the corresponding secondary antibody (ZSGB-BIO, Beijing, China) (1:3000) at room temperature for 1 h. Immunoblot bands were detected using an enhanced chemiluminescence system (Analytik Jena AG, Jena, Germany). The bands were analyzed using ImageJ (v1.8.0) software.

DDIT3 = assay: Western blot; conditions: vs blank control, p < 0.001
Method: as §1

P-P38 = assay: Western blot; conditions: with increasing concentrations vs blank control, p < 0.001
Method: as §1

SIRT3 = assay: Western blot; conditions: 48 h
Method: as §1

[5] = low-concentration group vs control, p < 0.01

COc1ccc(-c2oc3c(CC=C(C)C)c(OC(=O)CCCCCCCCCC[P+](c4ccccc4)(c4ccccc4)c4ccccc4)cc(O)c3c(=O)c2O)cc1 [Mito-ICT-4]
IC50 (HEK293; Homo sapiens, HEK293, MTT, 48 h drug exposure, mean ± SD, normal cell line): 67.1 ± 2.09 µM
reduction compared to ICT (cytotoxicity in HEK293 cells) (HEK293; from IC50 values in HEK293): 55.4%
cells undergoing early apoptosis (BEL-7402 cells [1]; BEL-7402 cells treated with Mito-ICT-4): 27.39%
apoptosis-inducing ability relative to ICT (BEL-7402 cells [1]; BEL-7402 cells, sentence cites [24]): approximately 29.8 times
total apoptosis rate (BEL-7402 cells [1]; high-dose group (2.5 μmol/L), 48 h): 27.39%
nuclear morphology, DAPI staining (BEL-7402 cells [2]): nuclei exhibited crumpling and cleavage
morphology with Calcein AM/CoCl2 (MPTP opening) (BEL-7402 cells [3]): transitioned from oval to round and, ultimately, to an irregular shape
intracellular ROS levels (BEL-7402 cells [4]): significantly elevated
CypD protein expression (CypD; [5]): elevated
CypD protein expression (CypD; medium and high-concentration groups vs control, p < 0.001): significantly higher
expression level of DDIT3 (DDIT3): increased significantly
expression level of P-P38 (P-P38): decreased significantly
SIRT3 expression levels (SIRT3; [5]): decreased
SIRT3 expression levels (SIRT3; medium- and high-concentration groups vs control, p < 0.001): significantly reduced
